These results are taken from US8791067B2, “Method for treating malaria” (Morehouse School of Medicine, priority 2012, dated 2014).

SMILES strings stand for the structures.

Holding throughout (type): cell-based
One test concerns HO-1. As to the kind of experiment: HO-1 expression in mouse brain endothelial cell line CRL2581. Particulars: CRL2581 cells; for expression of HO-1 mRNA and protein: data not shown. The text has this:
(§1) FIGS. 6D and 6E show protein expression of CXCL10 relative to actin in untreated control cells (D, E) and in cells treated with siSTAT3 (D), HEME (D, E), siSTAT3+HEME (D), AG490 (E) or AG490+HEME (E).
(§2) High level of free HEME produced during malaria infection causes inflammation that damages host vascular endothelium and is a major contributor to pathogenesis of severe malaria. To determine how HEME stimulates HO-1, CXCL10 and STAT3 signaling pathways in vitro, mouse brain endothelial cell line CRL2581 was treated with HEME and the effects of HEME on expression of HO-1, CXCL10 and STAT3 activation was assessed. […] When pSTAT3 was reduced by short interfering STAT3 (siSTAT3) (FIG. 6B) or pharmacological inhibitor of Jak, AG490 (FIG. 6C), HO-1 protein expression was inhibited correspondingly.

Another test relates to STAT3. As to the kind of experiment: STAT3 activation (pSTAT3) in HEME-treated mouse brain endothelial cell line CRL2581. The note with it: CRL2581 cells; for pSTAT3 level: FIG. 6B, 6C, 6G.
From the text: as §1, §2

The next test relates to CXCL10. As to the kind of experiment: CXCL10 expression and promoter activity in mouse brain endothelial cell line CRL2581. The note with it: CRL2581 cells.
From the text: as §1, §2

The subject of test [1] is Human brain microvascular endothelial cells (HBVEC). As to the kind of experiment: HEME-induced cell death of HBVEC by MTT assay. Particulars: HEME+AG490 (50 μmol/l) for 24 h, FIG. 7. The method, then: Human brain microvascular endothelial cells (HBVEC) were treated with HEME or with HEME plus AG490 and monitored for cell death progression by MTT assay.
Cell death progression in HBVEC cultured after treatment with HEME or HEME+AG490 (50 μmol/l) for 24 h as assayed by MTT assay (*P<0.05, n=3 triplicate experiments). The curves correspond to 3 experiments run in parallel. In all the samples, the same concentration of vehicle (DMSO, 0.1%) was used.
(Tetrazolium assays rely on reduction of a dye to a coloured formazan, in cell work by metabolically active cells.)

Test [2] deals with JAK/STAT3 signaling pathway. As to the kind of experiment: Human JAK/STAT signaling pathway real time RT^2 Profile PCR arrays in HBVEC. Particulars: HBVEC treated with 20 μM HEME vs vehicle; FIG. 8. On the procedure: Target genes of JAK/STAT3 signaling pathway upon HEME treatment was further assessed using real time RT^2 Profile PCR arrays (Qiagen, PAHS-039A). The results shown in FIG. 7 are expressed as the fold changes in expression obtained by comparing HBVEC treated with 20 μM HEME or with vehicle as control. […] The up regulated genes include STAT-induced gene matrix metallopeptidase 3 (MMP3), apoptosis-related gene CCAAT/enhancer binding protein (C/EBPb), Fc fragment of IgG, high affinity Ia, receptor (FCGR1A), Jun B proto-oncogene (JUNB), nuclear factor of kappa light polypeptide gene enhancer in B-cells 1 (NFκB), suppressor of cytokine signaling (SOCS3), SOCS4 and signal transducer and activator of transcription 4 (STAT4).

For `C=CC1=C(C)c2cc3[n-]c(cc4[n-]c(cc5nc(cc1n2)C(C)=C5C=C)c(C)c4CCC(=O)O)c(CCC(=O)O)c3C.[Zn+2]` [ZnPP], the “expression of HO-1 mRNA and protein” value in the test with HO-1 is recorded as “down regulated”. For the same compound, the pSTAT3 level entry in the test on STAT3 is recorded as “decreased”.

As to `N#C/C(=C\c1ccc(O)c(O)c1)C(=O)NCc1ccccc1` [AG490, tyrphostin AG490], the HO-1 protein expression result in the test with HO-1 (HEME-induced, pSTAT3 reduced, FIG. 6B, 6C) is listed as “inhibited”. Further, the pSTAT3 level result in the test with STAT3 is given as “reduced”. For the same compound, in the test on CXCL10 (protein relative to actin, FIG. 6D, 6E), the “expression of CXCL10” value is recorded as “reduced expression”. For the same compound, in test [1], the “HEME-induced apoptosis / cell death in HBVEC” value is reported as “can rescue the HEME-induced apoptosis”.

In the case of `C=CC1=C(C)c2cc3[n-]c(cc4[n-]c(cc5nc(cc1n2)C(C)=C5C=C)c(C)c4CCC(=O)O)c(CCC(=O)O)c3C.[Fe+2]` [HEME], the “expression of HO-1 mRNA and protein” value in the test on HO-1 is “significantly up regulated”. In the test on STAT3 (FIG. 6A), the “HEME concentration at which pSTAT3 peaked” value came to 5 μM and the “HEME concentration from which pSTAT3 was increased” value is 1 μM. In addition, in test [2], the “fold-change of down regulated genes (F2R, OAS1)” value is recorded as “greater than 2 fold” and the “fold-change of up regulated genes (MMP3, C/EBPb, FCGR1A, JUNB, NFκB, SOCS3, SOCS4, STAT4)” value was “greater than 2 fold”. In addition, the “expression of CXCL10 mRNA” value in the test with CXCL10 is “significantly up regulated”. In the test on CXCL10 (data not shown), the CXCL10 promoter activity entry is on record as “enhances CXCL10 promoter activity in a dose-dependent manner”.

As to `C=CC1=C(C)c2cc3[n-]c(cc4nc(cc5[n-]c(cc1n2)c(C)c5CCC(=O)[O-])C(CCC(=O)[O-])=C4C)c(C)c3C=C.[Co+2].[H+].[H+]` [CoPP, cobalt protoporphyrin], the “expression of HO-1 mRNA and protein” value in the test with HO-1 is reported as “significantly up regulated”. Also, the pSTAT3 level result in the test with STAT3 was “increased”.
